Experiment: xn = mol fraction of the nth substance listed
Details: Liquid, Vibrating tube method

CCCC [butane] + CCC
Details	mass density [kg/m3]
239.04 K, 463.7 kPa, x2 = 0.25	622.82
239.04 K, 943.7 kPa, x2 = 0.25	623.31
239.04 K, 1507.7 kPa, x2 = 0.25	623.9
239.04 K, 1962.4 kPa, x2 = 0.25	624.35
239.04 K, 2486.4 kPa, x2 = 0.25	624.89
239.04 K, 3058.3 kPa, x2 = 0.25	625.46
239.04 K, 3473.7 kPa, x2 = 0.25	625.88
239.04 K, 3994 kPa, x2 = 0.25	626.39
239.04 K, 4514.6 kPa, x2 = 0.25	626.9
239.04 K, 4950 kPa, x2 = 0.25	627.33
239.04 K, 5524.3 kPa, x2 = 0.25	627.9
239.04 K, 6029.4 kPa, x2 = 0.25	628.39
239.04 K, 6518 kPa, x2 = 0.25	628.86
239.04 K, 6930.6 kPa, x2 = 0.25	629.26
240 K, 478.5 kPa, x2 = 0.5	606.78
240 K, 514.9 kPa, x2 = 0.75	589.83
240 K, 996.7 kPa, x2 = 0.5	607.38
240 K, 1006.3 kPa, x2 = 0.75	590.44
240 K, 1479 kPa, x2 = 0.5	607.88
240 K, 1505.4 kPa, x2 = 0.75	591.03
240 K, 1962.4 kPa, x2 = 0.5	608.42
240 K, 2024.2 kPa, x2 = 0.75	591.63
240 K, 2491.6 kPa, x2 = 0.5	609
240 K, 2519.5 kPa, x2 = 0.75	592.21
240 K, 2956 kPa, x2 = 0.5	609.51
240 K, 3022.7 kPa, x2 = 0.75	592.8
240 K, 3501.4 kPa, x2 = 0.5	610.09
240 K, 3519.4 kPa, x2 = 0.75	593.39
240 K, 3952.5 kPa, x2 = 0.5	610.58
240 K, 4031.2 kPa, x2 = 0.75	593.97
240 K, 4493.1 kPa, x2 = 0.5	611.14
240 K, 4526.8 kPa, x2 = 0.75	594.51
240 K, 4946.9 kPa, x2 = 0.75	594.99
240 K, 4972.1 kPa, x2 = 0.5	611.66
240 K, 5472.1 kPa, x2 = 0.5	612.19
240 K, 5521.6 kPa, x2 = 0.75	595.64
240 K, 6000.1 kPa, x2 = 0.5	612.74
240 K, 6044.8 kPa, x2 = 0.75	596.2
240 K, 6502.7 kPa, x2 = 0.5	613.25
240 K, 6539.6 kPa, x2 = 0.75	596.77
240 K, 6973.1 kPa, x2 = 0.5	613.74
240 K, 7045.6 kPa, x2 = 0.75	597.3
260 K, 489.6 kPa, x2 = 0.75	566.44
260 K, 495.8 kPa, x2 = 0.5	585.02
260 K, 524.1 kPa, x2 = 0.25	600.69
260 K, 996.9 kPa, x2 = 0.75	567.21
260 K, 1001.1 kPa, x2 = 0.5	585.74
260 K, 1004.9 kPa, x2 = 0.25	601.3
260 K, 1482.5 kPa, x2 = 0.25	601.91
260 K, 1504.2 kPa, x2 = 0.75	567.97
260 K, 1506.4 kPa, x2 = 0.5	586.42
260 K, 1989.9 kPa, x2 = 0.25	602.54
260 K, 2003.6 kPa, x2 = 0.75	568.71
260 K, 2004.6 kPa, x2 = 0.5	587.1
260 K, 2508.4 kPa, x2 = 0.75	569.45
260 K, 2517.2 kPa, x2 = 0.5	587.78
260 K, 2521.3 kPa, x2 = 0.25	603.2
260 K, 3004 kPa, x2 = 0.25	603.79
260 K, 3014.9 kPa, x2 = 0.5	588.45
260 K, 3015.6 kPa, x2 = 0.75	570.19
260 K, 3449.6 kPa, x2 = 0.25	604.34
260 K, 3495.5 kPa, x2 = 0.75	570.88
260 K, 3506 kPa, x2 = 0.5	589.1
260 K, 4004.5 kPa, x2 = 0.5	589.73
260 K, 4006.2 kPa, x2 = 0.75	571.62
260 K, 4007 kPa, x2 = 0.25	605.01
260 K, 4494.5 kPa, x2 = 0.75	572.27
260 K, 4511.7 kPa, x2 = 0.25	605.63
260 K, 4525.9 kPa, x2 = 0.5	590.39
260 K, 5017.4 kPa, x2 = 0.5	591.03
260 K, 5017.7 kPa, x2 = 0.25	606.24
260 K, 5022.8 kPa, x2 = 0.75	573.01
260 K, 5508.1 kPa, x2 = 0.75	573.69
260 K, 5512.4 kPa, x2 = 0.25	606.82
260 K, 5513.7 kPa, x2 = 0.5	591.66
260 K, 6015.4 kPa, x2 = 0.5	592.29
260 K, 6034.1 kPa, x2 = 0.25	607.43
260 K, 6049.2 kPa, x2 = 0.75	574.41
260 K, 6498.8 kPa, x2 = 0.75	575.04
260 K, 6503.8 kPa, x2 = 0.25	607.98
260 K, 6512.1 kPa, x2 = 0.5	592.9
260 K, 6943 kPa, x2 = 0.75	575.6
260 K, 6986.6 kPa, x2 = 0.5	593.49
260 K, 7011.2 kPa, x2 = 0.25	608.56
280 K, 524.1 kPa, x2 = 0.25	578.3
280 K, 533.2 kPa, x2 = 0.5	561.24
280 K, 994.1 kPa, x2 = 0.25	579.05
280 K, 996.1 kPa, x2 = 0.5	562.05
280 K, 1496.7 kPa, x2 = 0.25	579.83
280 K, 1503.2 kPa, x2 = 0.5	562.93
280 K, 1506.3 kPa, x2 = 0.75	543.19
280 K, 2004.1 kPa, x2 = 0.5	563.79
280 K, 2012.9 kPa, x2 = 0.75	544.18
280 K, 2015.5 kPa, x2 = 0.25	580.63
280 K, 2501.9 kPa, x2 = 0.5	564.62
280 K, 2503.9 kPa, x2 = 0.25	581.38
280 K, 2509.6 kPa, x2 = 0.75	545.11
280 K, 3000.3 kPa, x2 = 0.25	582.13
280 K, 3006.4 kPa, x2 = 0.5	565.46
280 K, 3018.4 kPa, x2 = 0.75	546.06
280 K, 3502.3 kPa, x2 = 0.25	582.88
280 K, 3504.2 kPa, x2 = 0.5	566.28
280 K, 3513.7 kPa, x2 = 0.75	546.96
280 K, 4015 kPa, x2 = 0.25	583.63
280 K, 4015 kPa, x2 = 0.75	547.86
280 K, 4016.7 kPa, x2 = 0.5	567.11
280 K, 4505.3 kPa, x2 = 0.25	584.35
280 K, 4508.2 kPa, x2 = 0.75	548.75
280 K, 4524.6 kPa, x2 = 0.5	567.93
280 K, 4984.9 kPa, x2 = 0.75	549.59
280 K, 4998.7 kPa, x2 = 0.5	568.69
280 K, 5019.7 kPa, x2 = 0.25	585.09
280 K, 5502.7 kPa, x2 = 0.25	585.78
280 K, 5506.3 kPa, x2 = 0.5	569.47
280 K, 5508.8 kPa, x2 = 0.75	550.5
280 K, 6005.9 kPa, x2 = 0.25	586.49
280 K, 6009.4 kPa, x2 = 0.5	570.25
280 K, 6043.7 kPa, x2 = 0.75	551.39
280 K, 6507.4 kPa, x2 = 0.5	571.01
280 K, 6517.1 kPa, x2 = 0.25	587.21
280 K, 6530.4 kPa, x2 = 0.75	552.22
280 K, 6972.3 kPa, x2 = 0.5	571.72
280 K, 7009.3 kPa, x2 = 0.25	587.89
280 K, 7012.2 kPa, x2 = 0.75	553.04
300 K, 990 kPa, x2 = 0.5	536.26
300 K, 1002.3 kPa, x2 = 0.75	514.75
300 K, 1005.5 kPa, x2 = 0.25	555.26
300 K, 1504.4 kPa, x2 = 0.25	556.28
300 K, 1504.7 kPa, x2 = 0.75	516.09
300 K, 1541.4 kPa, x2 = 0.5	537.52
300 K, 1950.9 kPa, x2 = 0.5	538.44
300 K, 1972.1 kPa, x2 = 0.75	517.33
300 K, 2002.5 kPa, x2 = 0.25	557.25
300 K, 2461.4 kPa, x2 = 0.5	539.56
300 K, 2497.9 kPa, x2 = 0.25	558.21
300 K, 2507.7 kPa, x2 = 0.75	518.69
300 K, 2946.2 kPa, x2 = 0.5	540.6
300 K, 3009.2 kPa, x2 = 0.75	519.95
300 K, 3012.5 kPa, x2 = 0.25	559.2
300 K, 3505.6 kPa, x2 = 0.5	541.79
300 K, 3507.9 kPa, x2 = 0.25	560.13
300 K, 3511.5 kPa, x2 = 0.75	521.18
300 K, 3998.7 kPa, x2 = 0.25	561.02
300 K, 4015.9 kPa, x2 = 0.5	542.85
300 K, 4017.5 kPa, x2 = 0.75	522.39
300 K, 4511.3 kPa, x2 = 0.25	561.97

mass density [kg/m3]
Details	240 K	260 K	280 K
x2 = 0.25	–	600.21	577.86
x2 = 0.5	606.37	584.58	560.91
x2 = 0.75	589.36	566.05	541.14
